As a reminder, the melting point is the temperature, or range, at which the solid turns liquid.

Bounds are passed on as bounds.

`CCS(=O)(=O)CCC(=O)NNC(=O)N1Cc2ccccc2Oc2ccc(Cl)cc21`: the melting point was 181 to 184 °C.

`Cc1ccccc1Nc1nc(N(C)c2ccccc2)c2cccc(OCCO)c2n1` displayed a melting point of 158 to 160 °C.

As to `O=c1oc(-c2ccccc2)cc(O)c1SCCOc1ccccc1`, the melting point was in the range of 146 to 149 °C.

`Nc1cc(Oc2ccncc2)ccc1[N+](=O)[O-]` had a melting point of 170 to 175 °C.

`O=C(NCc1ccccc1O)[C@@H]1CCCN(c2cccc3c2C(=O)N(Cc2ccncc2)C3=O)C1` came in with a melting point of 181 to 182 °C.

`C[C@@H](n1ncn(-c2ccc(-n3ncn(-c4ccc(OCC(F)(F)C(F)F)cc4)c3=O)cc2)c1=O)[C@@]1(c2ccc(F)cc2F)CO1` gave a melting point of 181 to 183 °C.

Compound `Oc1ccc(Sc2cccc(F)n2)cc1` registered a melting point of 123 to 124 °C.

On to `COc1ccc(OC)c(C(=O)c2oc3ccccc3c2O)c1`, for which the melting point worked out at 158 °C.

`CC1(C)C(C(=O)NO)N(S(=O)(=O)c2ccc(-c3ccc(Br)cc3)cc2)CCS1(=O)=O` (centres undefined): the melting point lay within 190 to 191 °C.

In turn, `C#CCN(Cc1cc2c(=O)[nH]c(COS(C)(=O)=O)nc2cc1Cl)c1ccc(C(=O)OC(C)(C)C)cc1` showed a melting point of 178 to 181 °C.

Compound `Cc1ccc(-c2ccc3c(c2)C=C(C(=O)Nc2ccc(CN4CCN(c5ncccn5)CC4)cc2)CC3)cc1` gave a melting point of 203 to 204 °C.

`Cc1ccnc(N2CCN(CCc3c(C)n4c5c(cc(O)cc35)CCC4)CC2)c1` returned a melting point of 110 °C.

`CNC(=O)c1c(N)n(C2CCCC2)c2nc(C#CC(C)(O)CO)ccc2c1=O` (centres undefined) returned a melting point of 210 °C.

Regarding `COc1ccc(CCCCCCCOc2ccccc2)cc1`, the melting point was 32 to 34 °C.

In turn, `O=C(O)c1c(Cl)c([N+](=O)[O-])cc([N+](=O)[O-])c1Nc1ccc(OCc2ccccc2)cc1` came in with a melting point of 208 to 211 °C.

`CCOC(=O)c1sc(Oc2ccc(O)cc2)c2c1CCc1cnn(C)c1-2` yielded a melting point of 245 to 246 °C.

Regarding `Clc1cccc2cc3cccc(Cl)c3cc12`, the melting point was determined as 155 °C.

Compound `CC(CNC(c1ccccc1)c1ccccc1)NC(c1ccccc1)c1ccccc1` (centres undefined) registered a melting point of 72 to 75 °C.

As for `Cc1cc2ncnn2nc1OCCC(C)(C)CCS(N)(=O)=O`, the melting point was in the range of 143 to 144 °C.

In turn, `CC(C)c1ccc(OCC(=O)Cl)cc1` yielded a melting point of 104 to 105 °C.

For `COc1cc(C2=NC(C)(C)C(c3ccncc3)C2)cc(OC)c1OC` (centres undefined), the melting point is 143 to 144 °C.

Consider `NC(=S)Nc1ccc(Br)cc1`, for which the melting point was in the range of 188 to 189 °C.

Regarding `COc1cc(N2CCC(N3CCN(C)CC3)CC2)ccc1N`, the melting point lay in the range of 94 to 99 °C.

Take `CC(=O)Nc1ccc(OCC(O)CN2CCC(N3CCCNC3=O)CC2)cc1` (centres undefined): the melting point was 218 to 221 °C.

With `CC(=O)C(=NNc1cccc(Cl)c1)Sc1ccc(Cl)cc1`, the melting point fell in the range of 128 to 131 °C.

`Nc1c(Cl)cc(C(O)CNCCCCCOCCc2ccccc2)cc1C(F)(F)F` (centres undefined) displayed a melting point of 70 to 71.5 °C.

On to `COCOC1CCC2(C)C(=CCC3C2CCC2(C)C(COCc4ccccc4)CCC32)C1` (centres undefined), for which the melting point was in the range of 75 to 76 °C.

`Cc1cccc(C(C#N)N2CCOCC2)c1` (centres undefined) yielded a melting point of 59 to 60 °C.

`CCSc1cccc(-c2nc(=O)c3ccccc3s2)n1` had a melting point of 161 to 162 °C.

Compound `Cc1cccc(C#Cc2cccc(Br)c2)n1` came in with a melting point of 60 to 61 °C.

For the compound `O=C/C=C/c1ccc2ccccc2n1`, the melting point turned out to be 85 °C.

`COc1cc(F)c(C2NCCc3ccsc32)cc1OC` (centres undefined) displayed a melting point of 108 to 111 °C.

For the compound `CC(=O)NC1Cc2ccc(S(=O)(=O)Cl)cc2C1` (centres undefined), the melting point was in the range of 237 to 239 °C.

Consider `COc1ccc2oc(Cc3ccccc3)c(CC#N)c2c1`, for which the melting point fell in the range of 69 to 70 °C.

The compound `CCOC(=O)Cc1nc(-c2ccc(Cl)cc2)sc1Sc1ccccc1` registered a melting point of 71 to 73 °C.

`CC(C)(C)c1ccc(CCCCC(O)C2CCCCC2)cc1NC(=O)CC1c2ccccc2Oc2ccccc21` (centres undefined) gave a melting point of 147 to 148 °C.

With `CC(C)n1nc(-c2cnc(N)nc2-c2ccccc2Br)ccc1=O`, the melting point fell in the range of 203 to 205 °C.

Turning to `CN1CCC(Cc2ccc(Cl)nc2)C1=C[N+](=O)[O-]` (centres undefined), the melting point lay in the range of 141 to 142 °C.

The compound `COC(=O)c1ccc2sc(C)c(Cl)c2c1` yielded a melting point of 85 to 86 °C.

With `COc1ccc(C(Cl)=C(C=O)c2ccc(OC)c(OC)c2)cc1OC`, the melting point lay within 183 to 184 °C.

With `CC(O)(CCN)C1(F)C=CC(c2ccccc2)=CC1` (centres undefined), the melting point lay within 144 to 146 °C.

Consider `COC(=O)COc1ccc(C(C)=O)c(C)c1`, for which the melting point was in the range of 49 to 50 °C.

With `CS(=O)(=O)c1ccc(Oc2ccc([N+](=O)[O-])cc2C#N)cc1`, the melting point was in the range of 205 to 206 °C.

In turn, `CCOCc1nc2c(N)nc3c(c2n1CC(C)(C)OCCS(C)(=O)=O)CCCC3` yielded a melting point of 150 to 153 °C.

Turning to `OCc1cn2c(n1)sc1ccccc12`, the melting point amounted to 131 °C.

In turn, `CCOC(=O)c1cnn2c(C(=O)N3CCN(C(=O)OC(C)(C)C)CC3)c(Cc3cccc(F)c3C)c(-c3ccccc3)c2c1Cl` had a melting point of 88 to 90 °C.

The compound `CSc1cc(C(=O)O)cc(C(F)(F)F)c1` yielded a melting point of 135 to 140 °C.

`CC(=O)NCCCC(=O)N1CCCC(=O)c2ccc(Cl)cc2CCC1=O` yielded a melting point of 135 to 136 °C.

`CCCCc1ccc(N2CCN(C(=O)Nc3nc4ccccc4nc3OC)CC2)cc1`: the melting point lay in the range of 124 to 126 °C.

In turn, `O[C@@H]1CN(Cc2ccccc2)C[C@H]1Oc1ccc(Cl)cc1` (relative stereo) showed a melting point of 101 to 104 °C.

Regarding `CCNc1ccc(S(=O)c2ccccc2)cc1[N+](=O)[O-]` (centres undefined), the melting point fell in the range of 122 to 124 °C.

Consider `c1ccc(C(OC2CCN(CCCCNc3ccc4ncnn4n3)CC2)c2ccccc2)cc1`, for which the melting point was 102 to 104 °C.

As to `COc1ccc(Sc2cncc3sc(C(N)=O)cc23)cc1`, the melting point was in the range of 219 to 221 °C.

Turning to `Nc1cc(=O)n(Cc2cc(Cl)ccc2Cl)[nH]1`, the melting point lay in the range of 195 to 196 °C.

In turn, `CCOC(=O)c1ccc(NS(C)(=O)=O)c([N+](=O)[O-])c1` came in with a melting point of 124 °C.

As to `CCCC(=O)c1cnc2ccsc2c1Nc1ccccc1C(C)C`, the melting point was in the range of 118 to 120 °C.

`CCC[C@H]1CC[C@H](c2ncc(C(N)=O)cn2)CC1` yielded a melting point of 234 to 235 °C.

Turning to `CCCCCC(C)C(C)c1cc(O)c2c(c1)OC(C)(C)C1=C2CCC1` (centres undefined), the melting point was in the range of 154 to 156 °C.

As for `CC(=O)OC1(C(=O)CCl)CCC2C3CCC4=CC(=O)CCC4(C)C3CCC21C` (centres undefined), the melting point lay within 219 to 221 °C.

`CSc1nn2c(N3CCOCC3)cc(C)nc2c1S(=O)(=O)c1ccccc1`: the melting point is 206 to 208 °C.

With `CC(C)OC(=O)C=C1CN=C(c2ccccc2F)c2cc(Cl)ccc2N1`, the melting point was in the range of 144 to 145 °C.

The compound `NC(=O)[C@@H]1[C@H](Nc2c(Br)cnc3[nH]c(-c4cccnc4N4CCCC4)nc23)[C@H]2C=C[C@@H]1C2` returned a melting point of 190 °C.

In turn, `CC(C)(C)OC(=O)NC(Cc1c[nH]c2ccccc12)C(=O)C=Cc1cc(C(F)(F)F)cc(C(F)(F)F)c1` (centres undefined) had a melting point of 137 to 138 °C.

For the compound `CC(CO)c1ccc2oc3nc(N)c(C(=O)O)cc3c(=O)c2c1` (centres undefined), the melting point was > 300 °C.
